Assay results taken from the supplement of paper PMC10307832.

What was measured:
Assay in all cases: relative viability (nuclei count vs DMSO), 5 days (fraction); higher = more cells survive
Quizartinib + Olaparib = compound: CC(C)(C)c1cc(NC(=O)Nc2ccc(-c3cn4c(n3)sc3cc(OCCN5CCOCC5)ccc34)cc2)no1 [Quizartinib] + O=C(c1cc(Cc2n[nH]c(=O)c3ccccc23)ccc1F)N1CCN(C(=O)C2CC2)CC1 [Olaparib] (partner 8 µM)
Summary of the method: (§1)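 Each reported value is a median over duplicate plates. It expresses relative viability: treated-well nuclei count divided by vehicle-well nuclei count. Lung cancer cell lines in 1536-well plates were dosed by pin tool a day after seeding, alone with one drug or with a fixed anchor-drug dose plus five library-drug doses (not always all listed) in √10 steps, and nuclei were counted after 5 days.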

YM155 + Trametinib = compound: COCC[n+]1c2c(n(Cc3cnccn3)c1C)C(=O)c1ccccc1C2=O [YM155] + CC(=O)Nc1cccc(-n2c(=O)n(C3CC3)c(=O)c3c(Nc4ccc(I)cc4F)n(C)c(=O)c(C)c32)c1 [Trametinib] (partner 0.02 µM)
Summary of the method: as §1

YM155 + OSI-027 = compound: COCC[n+]1c2c(n(Cc3cnccn3)c1C)C(=O)c1ccccc1C2=O [YM155] + COc1cccc2cc(-c3nc([C@H]4CC[C@H](C(=O)O)CC4)n4ncnc(N)c34)[nH]c12 [OSI-027] (partner 0.5 µM)
Summary of the method: as §1

YM155 + Crizotinib = compound: COCC[n+]1c2c(n(Cc3cnccn3)c1C)C(=O)c1ccccc1C2=O [YM155] + C[C@@H](Oc1cc(-c2cnn(C3CCNCC3)c2)cnc1N)c1c(Cl)ccc(F)c1Cl [Crizotinib] (partner 1 µM)
Summary of the method: as §1

Cell Line | relative viability (Quizartinib + Olaparib; first compound 0.001 µM) | relative viability (Quizartinib + Olaparib; first compound 0.003162 µM) | relative viability (Quizartinib + Olaparib; first compound 0.01 µM) | relative viability (Quizartinib + Olaparib; first compound 0.03162 µM) | relative viability (Quizartinib + Olaparib; first compound 0.1 µM) | relative viability (YM155 + Trametinib; first compound 0.006325 µM) | relative viability (YM155 + Trametinib; first compound 0.02 µM) | relative viability (YM155 + Trametinib; first compound 0.06325 µM) | relative viability (YM155 + OSI-027; first compound 0.002 µM) | relative viability (YM155 + OSI-027; first compound 0.006325 µM) | relative viability (YM155 + OSI-027; first compound 0.02 µM) | relative viability (YM155 + OSI-027; first compound 0.06325 µM) | relative viability (YM155 + Crizotinib; first compound 0.002 µM) | relative viability (YM155 + Crizotinib; first compound 0.006325 µM) | relative viability (YM155 + Crizotinib; first compound 0.02 µM) | relative viability (YM155 + Crizotinib; first compound 0.06325 µM) | relative viability (YM155 + Trametinib; first compound 0.002 µM)
NCI-H23 | 0.273 | 0.269 | 0.372 | 0.279 | 0.264 | 0.361 | 0.498 | 0.225 | 0.498 | 0.66 | 0.599 | 0.522 | 0.527 | 0.607 | 0.47 | 0.234 | 
NCI-H322M | 0.769 | 0.721 | 0.739 | 0.678 | 0.825 | 0.5 | 0.48 | 0.536 | 0.58 | 0.525 | 0.533 | 0.581 | 0.822 | 0.906 | 0.949 | 0.578 | 0.55
NCI-H358 | 0.548 | 0.6 | 0.585 |  | 0.67 | 0.153 | 0.167 | 0.14 | 0.684 | 0.981 | 0.887 | 0.552 | 0.538 | 0.594 | 0.592 | 0.214 | 0.142
NCI-H441 | 0.441 | 0.558 | 0.646 | 0.434 | 0.683 | 0.393 | 0.461 | 0.268 | 0.468 | 0.496 | 0.537 | 0.381 | 0.676 | 0.623 | 0.694 | 0.509 | 0.383
NCI-H522 | 0.61 | 0.764 | 0.716 | 0.6 | 0.783 | 0.711 | 0.71 | 0.75 | 0.752 | 0.599 | 0.715 | 0.753 |  |  |  |  | 0.625
NCI-H1299 | 0.949 | 0.967 | 0.987 | 0.995 | 0.984 |  |  |  |  |  |  |  | 0.92 | 0.953 | 0.951 | 0.767 | 
NCI-H1395 | 0.476 | 0.455 | 0.489 | 0.444 | 0.512 | 1.02 | 1.08 | 1.2 | 0.579 | 0.665 | 0.684 | 0.705 |  |  |  |  | 1.04
NCI-H1563 |  |  |  |  |  |  |  |  | 0.752 | 0.754 | 0.652 | 0.741 | 0.915 | 0.802 | 0.838 | 0.886 | 
NCI-H1623 |  |  |  |  |  |  |  |  | 0.469 | 0.456 | 0.471 | 0.701 |  |  |  |  | 
NCI-H1703 | 0.488 | 0.306 | 0.2 | 0.166 | 0.307 |  |  |  |  |  |  |  | 0.612 | 0.13 | 0.459 | 0.175 | 
NCI-H1793 | 0.765 | 0.684 | 0.855 | 0.808 | 0.835 | 0.452 | 0.432 | 0.407 | 0.242 | 0.308 | 0.259 | 0.269 |  |  |  |  | 0.4
NCI-H2342 | 0.415 | 0.474 | 0.51 | 0.388 | 0.395 | 0.71 | 0.829 | 0.757 | 0.555 | 0.701 | 0.666 | 0.623 |  |  |  |  | 0.738
SW 900 | 0.803 | 0.871 | 0.968 | 0.921 | 0.885 | 0.922 | 0.843 | 0.809 | 0.544 | 0.501 | 0.557 | 0.478 |  |  |  |  | 
